# According to patent publication US12240822B2, “Naphthalene isoxazoline compound and application thereof” (SHANDONG C[…] SEA PHARMACEUTICAL TECHNOLOGY CO., LTD., priority 2023, dated 2025):
# Several values for one entry are separate records, joined by “and”; a condition that tells them apart may be missing. Equal values may be shown once.
# What was measured:
# [1] = test system: Thrips palmi Karny; test: Indoor toxicity test on Thrips palmi Karny adults, liquid tube drug film method with leaf soaking; type: in vivo; set-up: LC90 value of the A4 as fraction of the LC90 value of the C4 / LC90 value of the A4 as fraction of the LC90 value of the B4: unit not given beside the values; details: for LC50 / LC90: Thrips palmi Karny adults, 48 h after administration
# Description: Through indoor tests, a liquid tube drug film method improved by a filter paper drug film method was used for evaluating the indoor toxicity effects of three raw drugs on Thrips palmi Karny.
# Thrips palmi Karny was raised indoors in the insectary of the Plant Protection Institute of Shandong Academy of Agricultural Sciences.
# Culture was performed in an illumination incubator, and raising and observation were performed under the conditions that the temperature was 25.0±2.0° C., the relative humidity was 75±5% and the photoperiod (L/D) was 14 h/10 h.
# The insect for tests is an adult of Thrips palmi Karny.
# Three test medicaments were prepared into a mother solution with methanol and then diluted with a Tween-80 aqueous solution having a mass concentration of 0.1% in equal proportions, and the concentration was set in equal proportions. • B4 concentration: 0.5, 1, 2, 4, 8, 16 mg/L; • C4 concentration: 25, 12.5, 6.25, 3.125, 1.5625, 0.7813 mg/L; • A4 concentration: 0.1, 0.05, 0.025, 0.0125, 0.00625, 0.003125 mg/L. 3.2.2 Test Repetition
# Each processing was repeated 4 times, and 30 insects for tests were used for each repetition.
# According to NY/T 1154.8-2007, the liquid tube drug film method improved by the filter paper drug film method was used for processing insects for tests. Medicaments for tests were diluted into 6 concentrations, a 1.5 mL centrifugal tube was filled with each concentration of liquid medicine respectively and allowed to stand for 4 h, then the liquid medicine was poured out, and the centrifugal tube was placed on a test table and air-dried for later use. A fine needle tip was heated with an alcohol lamp, and a small hole with a diameter of about 2-3 mm was formed at the bottom of the air-dried centrifugal tube by heating. One repetition was performed for each tube, and 4 repetitions were performed for each concentration. Leaf soaking: A hole puncher was used for punching fresh cabbage leaves into circular leaves with a diameter of 0.5 cm, and the circular leaves were respectively soaked in each concentration of liquid medicine for 10 s with leaf soaking in clear water as a control. The processed leaves were placed on absorbent paper and air-dried and then clamped with small tweezers into the centrifugal tubes with corresponding liquid medicine concentrations, and one leaf was placed flatly in each tube. Indoor insects for tests: An interface of an insect sucker was sealed with gauze and sleeves an orifice of the processed centrifugal tube, and the hole formed by heating at the bottom of the centrifugal tube was aligned with the insects for tests to enable the insects for tests to be sucked into the centrifugal tube along the airflow. The insects for tests were processed after control, about 30 insects for tests were sucked for each repetition, then a tube cover was covered, and the hole formed by heating was sealed with a sealing film. After related information was marked, the number of live insects and the number of dead insects were recorded 48 h later.
# Test results were investigated 48 h after drug post-processing.
# The logarithm of the medicament concentration (mg/L) was taken as an independent variable X, the probability value of a corrected death rate was taken as a dependent variable Y, and the LC50 value, LC90 value, 95% confidence limit and R2 of a toxicity regression line were computed by DPS software.
# [2] = test system: Myzus persicae Sulzer; test: Indoor toxicity test on Myzus persicae Sulzer wingless aphids, insect soaking and leaf soaking method; type: in vivo; set-up: LC50 value of the A4 as fraction of the LC50 value of the C4 / LC50 value of the A4 as fraction of the LC50 value of the B4: unit not given beside the values; details: for LC50: Myzus persicae Sulzer wingless aphids, 48 h after administration
# Description: The aphid species was Myzus persicae Sulzer, which was a sensitive population raised indoors in the bioassay room of the Plant Protection Institute of Shandong Academy of Agricultural Sciences. The temperature range was 24-26° C., the humidity range was 60%-80%, and the illumination was L:D=16 h:8 h. Aphids used for tests were wingless aphids.
# Test medicaments were prepared into a mother solution with methanol and then diluted with a Tween-80 aqueous solution having a mass concentration of 0.1% in equal proportions. According to effective components, the B4 was set to 6 concentration gradients of 0.5 mg/L, 1 mg/L, 2 mg/L, 4 mg/L, 8 mg/L, and 16 mg/L; the C4 was set to 6 concentration gradients of 0.5 mg/L, 1 mg/L, 2 mg/L, 4 mg/L, 8 mg/L, and 16 mg/L; and the A4 was set to 6 concentration gradients of 0.05 mg/L, 0.1 mg/L, 0.2 mg/L, 0.4 mg/L, 0.8 mg/L, and 1.6 mg/L. A methanol aqueous solution having a volume concentration of 4% was taken as a blank control.
# Insects for tests were processed according to an insect soaking method (NY/T 1154.6-2006) and a leaf soaking method (NY/T 1154.14-2008). Each medicament for tests was diluted to the set 6 concentrations for later use. Absorbent paper was placed at the bottom of a disposable plastic cup, a layer of filter paper was laid on the absorbent paper, and 2 mL of distilled water was added to keep moisture for later use. Leaves with aphids were cut into small leaves, each leaf has about 20 wingless aphids, and the leaves with aphids were gently soaked in the liquid medicine with tweezers and then taken out after 10 s, and placed on the absorbent paper and air-dried. The air-dried leaves were placed in the prepared plastic cups which were then covered, and one leaf was placed in each plastic cup. One repetition was performed for each plastic cup, and 4 repetitions were performed for each concentration. The plastic cups were placed in an illumination incubator, and the number of live aphids and the number of dead aphids were recorded 48 h later.
# DPS software was used for processing, and the median lethal concentration LC50 and 95% confidence limit of 3 test medicaments on aphids at 48 h were determined.
# The logarithm of the medicament concentration (mg/L) was taken as an independent variable X, the probability value of a corrected death rate was taken as a dependent variable Y, and the LC50 value, 95% confidence limit and R2 of a toxicity regression line were computed by DPS software.
# [3] = 2 mg/L, 48 h, single repetitions 1-4
# [4] = 4 mg/L, 48 h, single repetitions 1-4
# [5] = 8 mg/L, 48 h, single repetitions 1-4
# [6] = 16 mg/L, 48 h, single repetitions 1-4
# [7] = 0.5 mg/L, 48 h, single repetitions 1-4
# [8] = 1 mg/L, 48 h, single repetitions 1-4
# [9] = 0.05 mg/L, 48 h, single repetitions 1-4
# [10] = 0.1 mg/L, 48 h, single repetitions 1-4
smiles,measurement,setting,value
"CO/N=C/NC(=O)c1ccc(C2=NOC(c3cc(Cl)cc(Cl)c3)(C(F)(F)F)C2)c2ccccc12 (stereo not shown) [B4, 4-(5-(3,5-dichlorophenyl)-5-(trifluoromethyl)-4,5-dihydroisoxazol-3-yl)-N-((methoxylimino)methyl)-1-naphthyl formamide]",Death rate,"[1]; 0.5 mg/L, 48 h, Total/Average",18.31%
same,Death rate,"[1]; 1 mg/L, 48 h, Total/Average",30.20%
same,Death rate,"[1]; 2 mg/L, 48 h, Total/Average",33.85%
same,Death rate,[1]; [3],30.77% and 36.84% and 27.78% and 40.00%
same,Death rate,"[1]; 4 mg/L, 48 h, Total/Average",47.56%
same,Death rate,[1]; [4],52.00% and 41.38% and 54.55% and 42.31%
same,Death rate,"[1]; 8 mg/L, 48 h, Total/Average",67.00%
same,Death rate,[1]; [5],79.17% and 68.00% and 58.33% and 62.50%
same,Death rate,"[1]; 16 mg/L, 48 h, Total/Average",98.68%
same,Death rate,[1]; [6],100.00% and 94.74%
same,LC50,[1],3.33 µg/mL
same,LC90,[1],33.9739 µg/mL
same,Death rate,"[2]; 0.5 mg/L, 48 h, Total",12.01%
same,Death rate,[2]; [7],10.00% and 12.50% and 13.04%
same,Death rate,"[2]; 1 mg/L, 48 h, Total",20.73%
same,Death rate,[2]; [8],15.15% and 22.22% and 21.74% and 23.81%
same,Death rate,"[2]; 2 mg/L, 48 h, Total",45.08%
same,Death rate,"[2]; 4 mg/L, 48 h, Total",61.17%
same,Death rate,[2]; [4],41.94% and 58.33% and 72.00% and 72.41%
same,Death rate,"[2]; 8 mg/L, 48 h, Total",78.33%
same,Death rate,[2]; [5],80.95% and 66.67% and 85.71% and 80.00%
same,Death rate,"[2]; 16 mg/L, 48 h, Total",84.61%
same,Death rate,[2]; [6],88.89% and 86.96% and 81.82% and 80.77%
same,LC50,[2],3.13 µg/mL
"CO/N=C/NC(=O)c1ccc(C2=NOC(c3cc(Cl)cc(Cl)c3)(C(F)(F)F)C2)cc1C (stereo not shown) [C4, fluxametamide]",Death rate,"[1]; 0.7813 mg/L, 48 h, Total/Average",14.47%
same,Death rate,"[1]; 1.5625 mg/L, 48 h, Total/Average",25.14%
same,Death rate,"[1]; 3.125 mg/L, 48 h, Total/Average",66.15%
same,Death rate,"[1]; 3.125 mg/L, 48 h, single repetitions 1-4",70.59% and 63.16% and 70.00% and 60.87%
same,Death rate,"[1]; 6.25 mg/L, 48 h, Total/Average",82.01%
same,Death rate,"[1]; 6.25 mg/L, 48 h, single repetitions 1-4",85.71% and 88.00% and 75.00% and 79.31%
same,Death rate,"[1]; 12.5 mg/L, 48 h, Total/Average",87.89%
same,Death rate,"[1]; 12.5 mg/L, 48 h, single repetitions 1-4",88.89% and 85.19% and 87.50% and 90.00%
same,Death rate,"[1]; 25 mg/L, 48 h, Total/Average",96.78%
same,Death rate,"[1]; 25 mg/L, 48 h, single repetitions 1-4",95.83% and 95.65% and 100.00%
same,LC50,[1],2.69 µg/mL
same,LC90,[1],16.1203 µg/mL
same,Death rate,"[2]; 0.5 mg/L, 48 h, Total",21.47%
same,Death rate,[2]; [7],25.00% and 25.71% and 16.67% and 18.52%
same,Death rate,"[2]; 1 mg/L, 48 h, Total",46.05%
same,Death rate,[2]; [8],47.83% and 36.36% and 40.00% and 60.00%
same,Death rate,"[2]; 2 mg/L, 48 h, Total",77.48%
same,Death rate,[2]; [3],85.71% and 77.78% and 75.00% and 71.43%
same,Death rate,"[2]; 4 mg/L, 48 h, Total",85.54%
same,Death rate,[2]; [4],89.29% and 88.00% and 87.10% and 77.78%
same,Death rate,"[2]; 8 mg/L, 48 h, Total",96.06%
same,Death rate,[2]; [5],91.67% and 92.59% and 100.00%
same,Death rate,"[2]; 16 mg/L, 48 h, Total",97.20%
same,Death rate,[2]; [6],93.33% and 100.00% and 95.45%
same,LC50,[2],1.1 µg/mL
"CO/N=C/NC(=O)c1ccc(C2=NOC(c3cc(Cl)cc(C(F)(F)F)c3)(C(F)(F)F)C2)c2ccccc12 (stereo not shown) [A4, 4-(5-(3-chloro-5-(trifluoromethyl)phenyl)-5-(trifluoromethyl)-4,5-dihydroisoxazol-3-yl)-N-((methoxylimino)methyl)-1-naphthyl formamide]",Death rate,"[1]; 0.003125 mg/L, 48 h, Total/Average",9.97%
same,Death rate,"[1]; 0.00625 mg/L, 48 h, Total/Average",37.74%
same,Death rate,"[1]; 0.00625 mg/L, 48 h, single repetitions 1-4",35.00% and 29.41% and 42.11% and 44.44%
same,Death rate,"[1]; 0.0125 mg/L, 48 h, Total/Average",61.14%
same,Death rate,"[1]; 0.0125 mg/L, 48 h, single repetitions 1-4",55.00% and 60.00% and 69.57%
same,Death rate,"[1]; 0.025 mg/L, 48 h, Total/Average",80.47%
same,Death rate,"[1]; 0.025 mg/L, 48 h, single repetitions 1-4",85.19% and 73.91% and 80.95% and 81.82%
same,Death rate,"[1]; 0.05 mg/L, 48 h, Total/Average",91.01%
same,Death rate,[1]; [9],85.71% and 91.30% and 94.44% and 92.59%
same,Death rate,"[1]; 0.1 mg/L, 48 h, Total/Average",100.00%
same,Death rate,[1]; [10],100.00%
same,LC50,[1],0.0123 µg/mL
same,LC90,[1],0.0705 µg/mL
same,LC90 value of the A4 as fraction of the LC90 value of the B4,"[1]; Thrips palmi Karny, 48 h",2/1000
same,LC90 value of the A4 as fraction of the LC90 value of the C4,"[1]; Thrips palmi Karny, 48 h",4/1000
same,Death rate,"[2]; 0.05 mg/L, 48 h, Total",15.94%
same,Death rate,[2]; [9],15.00% and 17.24% and 16.13% and 15.38%
same,Death rate,"[2]; 0.1 mg/L, 48 h, Total",24.96%
same,Death rate,[2]; [10],23.53% and 22.73% and 25.00% and 28.57%
same,Death rate,"[2]; 0.2 mg/L, 48 h, Total",33.73%
same,Death rate,"[2]; 0.2 mg/L, 48 h, single repetitions 1-4",33.33% and 35.71% and 34.29% and 31.58%
same,Death rate,"[2]; 0.4 mg/L, 48 h, Total",40.78%
same,Death rate,"[2]; 0.4 mg/L, 48 h, single repetitions 1-4",50.00% and 43.48% and 37.50% and 32.14%
same,Death rate,"[2]; 0.8 mg/L, 48 h, Total",63.22%
same,Death rate,"[2]; 0.8 mg/L, 48 h, single repetitions 1-4",61.29% and 67.74% and 60.53% and 63.33%
same,Death rate,"[2]; 1.6 mg/L, 48 h, Total",84.47%
same,Death rate,"[2]; 1.6 mg/L, 48 h, single repetitions 1-4",87.10% and 81.25% and 86.21% and 83.33%
same,LC50,[2],0.439 µg/mL
same,LC50 value of the A4 as fraction of the LC50 value of the B4,"[2]; Myzus persicae Sulzer, 48 h",14/100
same,LC50 value of the A4 as fraction of the LC50 value of the C4,"[2]; Myzus persicae Sulzer, 48 h",40/100
